In patent US9538754B2, “Combinations of pyrimethanil and monoterpenes” (Janssen Pharmaceutica NV, priority 2010, dated 2017) one finds MIC data, which are given here for one molecule.

Holding throughout (assay): Poison Plate Assay
Holding throughout (assay type): cell-based

In assay [1] the test system is Chaetomium globosum CEB1218.2. The following applies: CEB1218.2, 336 h, pyrimethanil (I) with thymol (II-a), ppm total active ingredient, Glucose Agar, 27° C., growth evaluated after two weeks, read-out: MIC-values (minimum inhibitory concentration) in ppm. The procedure: (§1) • Name of component (I): pyrimethanil • Name of component (II): thymol (II-a) • β-thujaplicin (II-b) • Test models: Fungi: to each well of a 24-well microliter plate, 1000 μl of Glucose Agar (GA: 10 g glucose, 1.5 g K2HPO4, 2 g KH2PO4, 1 g (NH4)2SO4, 0.5 g MgSO4 and 12.5 g agar in 1 liter deionised water) containing the appropriate combination of the test compounds in one of the concentrations of a dose series is added. The nutrient medium is inoculated with the test fungi by adding a sporeimycelium suspension (10 μl) or a small piece of agar from the margin of an actively growing colony and incubated under dark at 27° C. with 70% relative humidity. […] In addition to this dose series, pyrimethanil single was also tested at 9.50-7.13-5.34-4.01-3.01-2.25-1.69-1.27-0.95-0.71-0.53-0.40 ppm in order to define a lower limit to its activity.
(§2) A. G. Nass (1957) “Some aspects of the notions additivity, synergism and antagonism in the simultaneous activity of two antibacterial agents in vitro” Arch. intern. Pharmaco-dynamie 109: 211-228; Steinberg, D. C. (2000) “Measuring synergy” cosmetics & Toiletries 115(11): 59-62; and Lada, A., A. N. Petrocci, H. A. Green, and J. J. Merianos (1977) “Antimicrobial composition” U.S. Pat. No. 4,061,750, 3 pp.):
(§3) [formula] wherein: • QA is the concentration of compound A in ppm, acting alone, which produced an end point (e.g. MIC), • Qa is the concentration of compound A in ppm, in the mixture, which produced an end point (e.g. MIC), • QB is the concentration of compound B in ppm, acting alone, which produced an end point (e.g. MIC), • Qb is the concentration of compound B in ppm, in the mixture, which produced an end point (e.g. MIC). When the Synergy Index is greater than 1.0, antagonism is indicated. When the SI is equal to 1.0, additivity is indicated.

Assay [2] has as its system Stachybotrys atra CBS328.37. The following applies: CBS328, 336 h, pyrimethanil (I) with thymol (II-a), ppm total active ingredient, Glucose Agar, 27° C., growth evaluated after two weeks, read-out: MIC-values (minimum inhibitory concentration) in ppm. How it is done:
as §1, §2, §3

Assay [3] has as its system Ulocladium atrum IMI 214669a. The following applies: Alternaria atra, IMI214669A, 336 h, pyrimethanil (I) with β-thujaplicin (II-b), ppm total active ingredient, Glucose Agar, 27° C., growth evaluated after two weeks, read-out: MIC-values (minimum inhibitory concentration) in ppm. How it is done: as §1, §2, §3

In the case of `Cc1cc(C)nc(Nc2ccccc2)n1` [component (I), 4,6-dimethyl-N-phenyl-2-pyrimidinamine], the figures for the MIC in assay [1], in assay [2] and in assay [3] were 400 mg/L, 127 mg/L and 23 mg/L, respectively.
